Data on 30 molecules can be found in patent US20050003383A1, “Linoleate isomerase” (Arkion Life Sciences LLC d/b/a Bio-Technical Resources …, priority 1999, published 2005).

Series [1] relates to linoleate isomerase from Clostridium sporogenes. The series can be described thus: C. sporogenes linoleate isomerase kinetic assay, absorbence at 234 nm, partially purified enzyme. It is filed as biochemical. The note with it: for effect on isomerase activity: fatty acids and derivatives fixed at 35 μM; for Vmax / Km: compound as substrate; for Km: read-out: Km; for substrate has an inhibitory effect at concentrations above: substrate concentration dependency of isomerization; for Activity / Activity (%): cofactor 50 μM, DTT 1 mM; for Activity (%): no cofactor = 100. The protocol:
In this experiment, all kinetic experiments were performed in a quartz cuvette (1-cm light-path with a magnetic stirrer) at room temperature using a HP 8452A diode array spectrophotometer. The cuvette was filled with 1 ml of incubation buffer containing 50 μg protein, 0.1 M potassium phosphate, pH7.5, 10 mM NaCl and 10% 1,2-propane diol. The isomerization was initiated by adding a small aliquot (1-2 μl) of freshly diluted substrate-stock (˜[…] linoleic acid) in 1,2-propane diol at 50 seconds. The increase in absorbence at 234 nm was monitored and recorded. […] The amount of product formed was calculated based on a molar extinction coefficient of 24,000.

For series [2], the target named is P. acnes ATCC 6919 linoleate isomerase (Cutibacterium acnes, UniProt Q6A8X5). It counts as biochemical, Propionibacterium acnes. The conditions noted are these: for inhibition of isomerase activity: EDTA 5 mM, 1,10-phenanthroline 1 mM, p-chloromercuribenzoate 5 μM, N-ethylmaleimide 100 μM. As for the experimental part:
Formation of CLA was determined by measuring the absorbence at 234 nm. […] Generally, the isomerase was assayed using an endpoint assay after 30 to 60 minutes incubation at room temperature. FIG. 18 (time course assay at different linoleic acid levels) and FIG. 19 (end point assay at different linoleic acid levels) show the effect of increasing substrate concentration on formation of […].

Series [3] in a line: Linoleate isomerase characterization (Table 7B), enzymes compared on linoleic acid. It is filed as biochemical. The protocol:
Table 7B is a summary of the kinetic data and characterization of linoleate isomerases from P. acnes (crude extract prior to DEAE purification as in Example 11, except that the Vmax was determined using enzyme purified through the chromatofocusing step as in Example 11), L. reuteri (enzyme purified through the gel filtration step as in Example 3), and C. sporogenes (enzyme purified through the gel filtration step as in Example 17), all isolated by the present inventors, and the B. fibrisolvens A-38 linoleate isomerase (crude extract; Kepler and Tove, 1967, J. Biochem. 242:5686-5692). The substrate in these experiments was linoleic acid.

The mark [4] stands for this setting: compound added at 35 μM, substrate LA 35 μM, pH 7.5, LA alone = 100%.
Where [5] appears, read: compound as substrate at 10 PPM, activity with linoleic acid set as 100%.
The mark [6] stands for this setting: isomerization of (cis, cis, cis, cis)-6, 9, 12, 15 octadecatetraenoic acid 20 PPM.
Where [7] appears, read: isomerization of linoleic acid 10 PPM.

Where two headings read alike, the source gives them in different places. A value given as a limit tells only on which side of the number the result lay.

`CCCCC/C=C\C/C=C\CCCCCCCC(=O)OC` [methyl linoleate, (cis, cis)-linoleic acid methyl ester]: the serves as substrate entry in series [1] is given as “do not serve as substrates”. Besides, the figures for the “RELATIVE ACTIVITY %” value in series [1] (setting [4]) and in series [1] (setting [5]) were 69% and 0%, respectively. The “effect on isomerase activity” value in series [1] is “inhibitors”.
`N[C@@H](CCC(=O)N[C@@H](CS)C(=O)NCC(=O)O)C(=O)O` [glutathione]: the “effect of possible cofactors on isomerase activity” value (shortened to “effect of possible cofactors”) in series [2] is on record as “No significant effect”.
For `CC/C=C\C/C=C\C/C=C\C/C=C\CCCCC(=O)O` [stearidonic acid, (cis, cis, cis, cis)-6, 9, 12, 15 octadecatetraenoic acid], in series [1], the Vmax was 204 nmole/min/mg protein; the Km – broadly, the concentration of substrate that gives half-maximal velocity – came to 18.9 µM; the “substrate has an inhibitory effect at concentrations above” value was more than 120 µM. Besides, in series [1] (setting [5]), the “RELATIVE ACTIVITY %” value is 60%.
As for `CCCCCCCC/C=C\CCCCCCCCCCCC(=O)O` [erucic acid, (cis)-13-docosaenoic acid], in series [1] (setting [5]), the “RELATIVE ACTIVITY %” value is recorded as 0%.
Turning to `O=C(O)c1cc[c]([Hg][Cl])cc1` [p-chloromercuribenzoate], in series [2], the “inhibition of isomerase activity” value is “not inhibited”.
Turning to `CCCCCCCC[C@H]1O[C@H]1CCCCCCCC(=O)O` (relative stereo) [epoxystearic acid, (cis)-9:10-epoxyoctadecanoic], in series [1] (setting [5]), the “RELATIVE ACTIVITY %” value is listed as 0%.
In the case of `Nc1ncnc2c1ncn2[C@@H]1O[C@H](COP(=O)(O)OP(=O)(O)O)[C@@H](O)[C@H]1O` [ADP], in series [1] (setting [6]), the “Activity” value was 5.7 nmol/min and the “Activity (%)” value was 92%. Also, in series [1] (setting [7]), the “Activity” value is 11.1 ± 1.7 nmol/min and the “Activity (%)” value was found to be 105%. Moreover, the “effect of possible cofactors” value in series [2] (60 minute assays) is on record as “No significant effect”.
Regarding `CCCCCCCCCCCCCCCCCC(=O)O` [stearic acid, octadecanoic acid], the “RELATIVE ACTIVITY %” value in series [1] (setting [4]) is 107%.
In the case of `Nc1ncnc2c1ncn2[C@@H]1O[C@H](COP(=O)(O)OP(=O)(O)OP(=O)(O)O)[C@@H](O)[C@H]1O` [ATP], in series [1] (setting [6]), the “Activity” value is 6.1 nmol/min and the “Activity (%)” value is 98%. Also, in series [1] (setting [7]), the “Activity” value was determined as 11.1 ± 1.4 nmol/min and the “Activity (%)” value turned out to be 105%. In series [2] (60 minute assays), the “effect of possible cofactors” value is “No significant effect”.
Regarding `CCCCC/C=C\C/C=C\CCCCCCCCCCCC(=O)O` [(cis, cis)-13, 16 docosadienoic acid], the “RELATIVE ACTIVITY %” value in series [1] (setting [5]) is 0%.
Regarding `CCCCC/C=C\C/C=C\C/C=C\CCCCCCC(=O)O` [(cis, cis, cis)-8, 11, 14 eicosatrienoic acid], in series [1] (setting [5]), the “RELATIVE ACTIVITY %” value was 0%.
Consider `Cc1cc2nc3c(=O)[nH]c(=O)nc-3n(C[C@H](O)[C@H](O)[C@H](O)COP(=O)(O)OP(=O)(O)OC[C@H]3O[C@@H](n4cnc5c(N)ncnc54)[C@H](O)[C@@H]3O)c2cc1C` [FAD], for which the “effect of possible cofactors” value in series [2] (60 minute assays) is “No significant effect”.
Regarding `CC(C)(COP(=O)(O)OP(=O)(O)OC[C@H]1O[C@@H](n2cnc3c(N)ncnc32)[C@H](O)[C@@H]1OP(=O)(O)O)[C@@H](O)C(=O)NCCC(=O)NCCS` [CoA], in series [1] (setting [6]), the “Activity” value came to 6.5 nmol/min and the “Activity (%)” value is given as 105%.
Regarding `CCCCC/C=C\C/C=C\C/C=C\CCCCC(=O)O` [γ-linolenic acid, (cis, cis, cis)-6,9, 12-octadecatrienoic acid], in series [1], the Vmax came to 236 nmole/min/mg protein, the Km was 23.8 µM and the “substrate has an inhibitory effect at concentrations above” value is more than 15 µM. In addition, in series [1] (setting [5]), the “RELATIVE ACTIVITY %” value turned out to be 77%.
Take `CCN1C(=O)C=CC1=O` [N-ethylmaleimide]: the “inhibition of isomerase activity” value in series [2] was “not inhibited”.
With `CCCCC/C=C/C/C=C/CCCCCCCC(=O)O` [linolelaidic acid, (trans, trans)-9, 12-octadecadienoic acid], the “RELATIVE ACTIVITY %” value in series [1] (setting [4]) was found to be 19%; in series [1] (setting [5]), 0%.
In the case of `[Ca]` [Calcium], the “effect of possible cofactors” value in series [2] (60 minute assays) is “no effect”.
On to `NC(=O)C1=CN([C@@H]2O[C@H](COP(=O)(O)OP(=O)(O)OC[C@H]3O[C@@H](n4cnc5c(N)ncnc54)[C@H](O)[C@@H]3O)[C@@H](O)[C@H]2O)C=CC1` [NADH], for which, in series [1] (setting [6]), the “Activity” value is reported as 6.4 nmol/min and the “Activity (%)” value is 103%. Further, in series [1] (setting [7]), the “Activity (%)” value worked out at 99%. In addition, in series [2] (60 minute assays), the “effect of possible cofactors” value is recorded as “No significant effect”.
For the molecule `NC(=O)C1=CN([C@@H]2O[C@H](COP(=O)(O)OP(=O)(O)OC[C@H]3O[C@@H](n4cnc5c(N)ncnc54)[C@H](OP(=O)(O)O)[C@@H]3O)[C@@H](O)[C@H]2O)C=CC1` [NADPH], in series [1] (setting [6]), the “Activity” value worked out at 6.3 nmol/min and the “Activity (%)” value is given as 102%. For the same molecule, in series [1] (setting [7]), the “Activity” value was 11.1 ± 1.5 nmol/min and the “Activity (%)” value was 105%. Further, the “effect of possible cofactors” value in series [2] (60 minute assays) is “No significant effect”.
Take `NC(=O)c1ccc[n+]([C@@H]2O[C@H](COP(=O)([O-])OP(=O)(O)OC[C@H]3O[C@@H](n4cnc5c(N)ncnc54)[C@H](OP(=O)(O)O)[C@@H]3O)[C@@H](O)[C@H]2O)c1` [NADP]: the “effect of possible cofactors” value in series [2] (60 minute assays) is on record as “No significant effect”.
`CCCCC/C=C\C/C=C\CCCCCCCCCC(=O)OC` [(cis, cis)-11, 14 eicosadienoic acid methyl ester]: in series [1] (setting [5]), the “RELATIVE ACTIVITY %” value amounted to 0%.
As to `NC(=O)c1ccc[n+]([C@@H]2O[C@H](COP(=O)([O-])OP(=O)(O)OC[C@H]3O[C@@H](n4cnc5c(N)ncnc54)[C@H](O)[C@@H]3O)[C@@H](O)[C@H]2O)c1` [NAD], in series [1] (setting [6]), the “Activity” value was determined as 5.6 nmol/min and the “Activity (%)” value worked out at 90%. In series [1] (setting [7]), the “Activity” value was 10.8 ± 1.3 nmol/min and the “Activity (%)” value came out at 102%. The “effect of possible cofactors” value in series [2] (60 minute assays) was “No significant effect”.
As to `[Mg]` [magnesium], the “effect of possible cofactors” value in series [2] (60 minute assays) is given as “no effect”.
Regarding `CCCCC/C=C\C/C=C\CCCCCCCCCC(=O)O` [(cis, cis)-11, 14 eicosadienoic acid], the “RELATIVE ACTIVITY %” value in series [1] (setting [4]) amounted to 0%; in series [1] (setting [5]), 20%.
For `CCCCCC/C=C\CCCCCCCC(=O)O` [palmitoleic acid, (cis)-9 hexadecenoic acid], the “RELATIVE ACTIVITY %” value in series [1] (setting [4]) was found to be 27%; in series [1] (setting [5]) it was 0%. In addition, the Ki – broadly, the dissociation constant of the complex between target and ligand, obtained from inhibition or displacement – in series [1] (inhibition of linoleic acid isomerization, calculated from secondary plots, read-out: inhibition constants (Ki)) is 33.1 µM.
As for `Cc1cc2nc3c(=O)[nH]c(=O)nc-3n(C[C@H](O)[C@H](O)[C@H](O)COP(=O)(O)O)c2cc1C` [FMN], in series [2] (60 minute assays), the “effect of possible cofactors” value was “No significant effect”.
With `CCCCC/C=C\C/C=C\CCCCCCCCO` [linoleyl alcohol, (cis, cis)-9, 12-octadecadien-1-ol], in series [1], the serves as substrate result is reported as “do not serve as substrates” and the “effect on isomerase activity” value is on record as “inhibitors”. The “RELATIVE ACTIVITY %” value in series [1] (setting [4]) is 81%. Moreover, the “RELATIVE ACTIVITY %” value in series [1] (setting [5]) amounted to 0%.
Consider `CCCCCCCCCCCCCCCC(=O)O` [palmitic acid, hexadecanoic acid], for which, in series [1] (setting [4]), the “RELATIVE ACTIVITY %” value is 93%.
Turning to `O[C@H](CS)[C@H](O)CS` (racemic) [DTT, dithiothreitol], in series [1] (setting [6]), the “Activity” value stood at 5.9 nmol/min and the “Activity (%)” value is reported as 95%. Also, in series [1] (setting [7]), the “Activity” value turned out to be 12.8 ± 3.8 nmol/min and the “Activity (%)” value was 121%.

B1: P. acnes: (trans, cis)-10,12-linoleate isomerase from Propionibacterium acnes ATCC 6919, SEQ ID NO:61 (protein)
chain: MSISKDSRIAIIGAGPAGLAAGMYLEQAGFHDYTILERTDHVGGKCHSPNYHGRRYEMGAIMGVPSYDTIQEIMDRTGDKVDGPKLRREFLHEDGEIYVPEKDPVRGPQVMAAVQKLGQLLATKYQGYDANGHYNKVHEDLMLPFDEFLALNGCEAARDLWINPFTAFGYGHFDNVPAAYVLKYLDFVTMMSFAKGDLWTWADGTQAMFEHLNATLEHPAERNVDITRITREDGKVHIHTTDWDRESDVLVLTVPLEKFLDYSDADDDEREYFSKIIHQQYMVDACLVKEYPTISGYVPDNMRPERLGHVMVYYHRWADDPHQIITTYLLRNHPDYADKTQEECRQMVLDDMETFGHPVEKIIEEQTWYYFPHVSSEDYKAGWYEKVEGMQGRRNTFYAGEIMSFGNFDEVCHYSKDLVTRFFV
modifications: Propionibacterium acnes
B1: the “Enzyme Solubility” value in series [3] is recorded as “S”. Also, the “CLA Isomer” value in series [3] (CLA isomer produced from linoleic acid) was 10,12. In addition, the “Optimal pH” value in series [3] (substrate linoleic acid) is listed as 7.3. For the same molecule, the Km in series [3] (substrate linoleic acid, crude extract) was found to be 17.2 µM. The Vmax in series [3] (substrate linoleic acid, purified enzyme) is 478^5 nmol/min/mg.
